Test [1] relates to MC3T3-E1 cells. The test can be described thus: Cell viability, MTT assay. Format: cell-based, mouse. The following applies: for cell viability: MC3T3-E1 early stage cultures, data not shown. The procedure:
Cell viability was measured in MC3T3-E1 cells using the 3-[4,5-dimethylthiazol-2-yl]-2,5-diphenyltetrazolium bromide (MTT) assay in 96-well plates as described in the Roche Molecular Biochemicals product information. Briefly, cells were cultured to confluence, at which time various concentrations and combinations of ligands were added to the cultures followed by incubation for 24 to 60 hr. MTT substrate to a final concentration of 0.5 mg/ml was added to each well and the incubation was extended for a further 4 hr. At this time, cells were solubilized overnight in 10% sodium dodecyl sulfate (SDS) in 0.01 M HCl and absorbance was measured at 595 nm using a 650 nm reference wavelength.
(In general: Formazan colour is commonly taken as a measure of viable cells.)

The test system of test [2] is MC3T3-E1 cells. The test can be described thus: Cell death, propidium iodide (PI) staining. Format: cell-based, mouse. The following applies: for number of PI-stained cells (cell death): MC3T3-E1, single ligand. The procedure: Cultures of MC3T3-E1 were initiated at sub-confluence (1-2×10^4 cells/well) in 24-well plates and allowed to reach confluence prior to the addition of ligands, β-GP and ascorbate. […] Cells were incubated in the presence of the dye for 5 minutes, and images were acquired using epifluorescence with a XF35 filter set (Omega Optical) at low magnification (50×). The number of fluorescent-positive cells per microscopic field (3 mm^2) was counted using Northern Eclipse imaging software.

Test [3] deals with normal human osteoblasts. The test can be described thus: Normal human osteoblast cultures, mineralization (alizarin red S, Von Kossa). Format: cell-based. The following applies: 1000 nM, versus control cultures.
The subject of test [4] is normal human osteoblasts. The test is described as follows: Normal human osteoblast cultures, cell death and cell number (PI, Hoechst 33342). Format: cell-based. Conditions: 1000 nM, 10 days, versus control cultures. The procedure: Normal human osteoblast (NHO) were derived from the long bones of a human donor. The cells were purchased from Clonetics (BioWhittaker Company) and cultured according to their protocols with media and serum obtained from Clonetics. Ligands were added to the cell cultures once the cells had reached confluence. Cells were stained with Hoechst 33342, a DNA stain, to allow visualization of the cell nuclei and allow assessment of cell number (the cell nuclei appear white) (FIGS. 7A-C). FIGS. 7D-F the cells were stained with propidium iodide (a membrane impermeant nucleic acid stain) to allow visualization of dead or dying cells.

Test [5] concerns MC3T3-E1 cells. The test is described as follows: Histological analysis of mineralization (Alizarin Red S) in MC3T3-E1 cultures. Format: cell-based, mouse. Conditions: for mineralization (Alizarin Red S staining), concentration dependence: MC3T3-E1 mineralizing cultures. The procedure:
MC3T3-E1 cells were maintained in Minimum Essential Medium Eagle-modification supplemented with 10% fetal bovine serum (Gibco-BRL) and subcultured as previously described (20). For mineralization, cultures of MC3T3-E1 cells were supplemented with ascorbate (50 μg/ml) and β-glycerolphosphate (β-GP, 10 mM), and the medium was changed every 3 days. These compounds, in addition to ligands, were added to the media once the cultures had reached confluence. MC3T3-637OC stable transfectants were cultured in the same manner and supplemented with active G418 (700 μg/ml). COSP7 cells were cultured in Dulbecco's Modified Eagle's Medium containing 10% FBS and antibiotics. All-trans RA was obtained from Sigma. 4-[E-2-(5,6,7,8-Tetrahydro-5,5,8,8-tetramethyl-2-naphthalenyl)-1-propenyl] benzoic acid (TTNPB), 1,25 VD3 and 9-cis RA were purchased from BioMol.
MC3T3-E1 cells were seeded at 2×10^4 cells/well into 12-well plates, and medium was changed at three-day intervals for a period of 4 weeks. Matrix calcification within the cultures was measured by histological staining with Alizarin Red S (Sigma). Cells were fixed for 10 min in equal parts of 40% formaldehyde and methanol, rinsed briefly in 50% ethanol followed by a rinse in water. Samples were then stained with Alizarin Red S (2% w/v, pH 4.2) for 2 min, followed by a 30-second wash in acetone and allowed to air dry. A Zeiss SV11 dissection microscope connected to a Sony DXC-950 video camera was used to capture digital images. The extent of mineralization for each culture was determined by calculating the percentage of surface area occupied by Alizarin Red S-stained material using Northern Eclipse image analysis software (Empix Imaging Inc.). All images were captured from the center of the well at low magnification, a field which represents ˜65% of the total surface area of the well.

In the next test the target is T1, RARβ (Homo sapiens, UniProt P10826).
T1 sequence (P10826 1-455): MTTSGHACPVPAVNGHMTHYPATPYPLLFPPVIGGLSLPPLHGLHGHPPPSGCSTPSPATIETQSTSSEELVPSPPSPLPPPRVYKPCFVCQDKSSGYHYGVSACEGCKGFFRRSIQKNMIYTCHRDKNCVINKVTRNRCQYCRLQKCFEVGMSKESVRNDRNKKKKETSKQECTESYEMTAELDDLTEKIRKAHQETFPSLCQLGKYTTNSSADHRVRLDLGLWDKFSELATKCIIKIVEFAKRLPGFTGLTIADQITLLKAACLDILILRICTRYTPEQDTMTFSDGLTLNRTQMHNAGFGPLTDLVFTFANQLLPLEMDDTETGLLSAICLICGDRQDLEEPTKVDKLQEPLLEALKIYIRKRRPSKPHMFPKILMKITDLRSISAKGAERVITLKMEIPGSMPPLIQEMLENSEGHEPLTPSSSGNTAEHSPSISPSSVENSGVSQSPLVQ
The following applies: compared with RARα; cited from earlier work.

Another test concerns the target T2, RARα (Homo sapiens, UniProt P10276).
T2 sequence (P10276 1-462): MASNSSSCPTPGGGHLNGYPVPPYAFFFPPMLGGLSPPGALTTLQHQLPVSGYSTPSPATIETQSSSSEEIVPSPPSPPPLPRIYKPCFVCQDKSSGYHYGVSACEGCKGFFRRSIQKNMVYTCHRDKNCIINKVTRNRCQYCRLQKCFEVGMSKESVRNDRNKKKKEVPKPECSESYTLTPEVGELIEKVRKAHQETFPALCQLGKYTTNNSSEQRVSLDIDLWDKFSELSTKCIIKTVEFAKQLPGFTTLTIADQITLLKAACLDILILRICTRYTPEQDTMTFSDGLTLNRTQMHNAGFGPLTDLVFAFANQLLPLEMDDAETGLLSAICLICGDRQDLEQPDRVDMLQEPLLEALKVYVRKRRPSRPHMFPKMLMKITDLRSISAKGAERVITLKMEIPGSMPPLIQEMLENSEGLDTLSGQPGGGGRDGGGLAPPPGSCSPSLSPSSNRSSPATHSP
Conditions: cited from earlier work.

In test [6] the test system is OC mRNA in MC3T3-E1 cultures. The test is described as follows: Northern blotting of osteocalcin (OC) mRNA. The following applies: MC3T3-E1, 1000 nM. Format: cell-based, mouse. The procedure: Total RNA was isolated with TriPure Isolation Reagent (Roche Molecular Biochemicals) from MC3T3-E1 cultures under mineralizing conditions at various times after culture initiation. RNA samples were separated by electrophoresis of 15 μg aliquots on a 1% agarose-formaldehyde gel. RNA was then transferred to a Hybond-N nylon membrane (Amersham-Pharmacia Biotech) and cross-linked by UV irradiation. Blots were pre-hybridized in Ultrahyb (Ambion) at 45° C. for at least 1 hr. A radiolabeled rat cDNA probe to OC (provided by J. E. Aubin, University of Toronto) was synthesized by random priming. Hybridizations were carried out overnight in Ultrahyb at 42° C. Following hybridization, blots were washed twice with 2×SSC, 0.1% SDS containing buffer for 5 min each at 42° C., followed by two washes in 0.1×SSC, 0.1% SDS for 15 min each at 42° C. and exposed to BioMax X-ray film at −80° C. for 24 hr.

Another test has as its target T3, RARγ (Homo sapiens, UniProt P13631).
T3 sequence (P13631 1-454): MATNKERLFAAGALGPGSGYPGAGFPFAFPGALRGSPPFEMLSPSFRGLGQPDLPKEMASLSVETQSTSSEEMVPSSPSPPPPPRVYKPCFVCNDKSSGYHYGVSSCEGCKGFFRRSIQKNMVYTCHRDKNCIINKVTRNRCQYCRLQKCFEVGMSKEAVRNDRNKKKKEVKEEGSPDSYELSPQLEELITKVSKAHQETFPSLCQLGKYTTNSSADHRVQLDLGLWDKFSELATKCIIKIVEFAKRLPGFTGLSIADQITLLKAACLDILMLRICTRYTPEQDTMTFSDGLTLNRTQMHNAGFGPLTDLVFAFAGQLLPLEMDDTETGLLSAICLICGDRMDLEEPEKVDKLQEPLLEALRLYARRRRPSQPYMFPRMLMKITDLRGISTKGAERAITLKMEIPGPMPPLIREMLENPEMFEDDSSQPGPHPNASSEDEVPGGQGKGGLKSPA
Conditions: compared with RARα; cited from earlier work.

Regarding `CC1=C(/C=C/C(C)=C/C=C/C(C)=C/C(=O)O)C(C)(C)CCC1` [all-trans RA, all-trans retinoic acid], in the test on MC3T3-E1 cells [1], the cell viability entry is “concentration-dependent decrease in cell viability”. The “number of PI-stained cells (cell death)” value in the test on MC3T3-E1 cells [2] is “stimulate cell death”. For the same compound, the alizarin red staining entry in the test with normal human osteoblasts [3] (fifteen day old cultures) was “reduced alizarin red staining”. In the test with normal human osteoblasts [4], the “cell death (PI staining)” value is on record as “increased cell death” and the “cell number (Hoechst 33342)” value is recorded as “decreased cell number”.

In the case of `C/C(=C\c1ccc(C(=O)O)cc1)c1ccc2c(c1)C(C)(C)CCC2(C)C` [TTNPB, 4-[E-2-(5,6,7,8-Tetrahydro-5,5,8,8-tetramethyl-2-naphthalenyl)-1-propenyl] benzoic acid], the cell viability entry with MC3T3-E1 cells [1] was “concentration-dependent decrease in cell viability”. Besides, the “number of PI-stained cells (cell death)” value with MC3T3-E1 cells [2] is on record as “stimulate cell death”.

In the case of `C=C1/C(=C\C=C2/CCC[C@]3(C)[C@@H]([C@H](C)CCCC(C)(C)O)CC[C@@H]23)C[C@@H](O)C[C@@H]1O` [1,25 VD3, 1α,25-dihydroxy vitamin-D3], in the test on MC3T3-E1 cells [5] (MC3T3-E1, 28 days, 0.1 nM), the “amount of Alizarin Red-staining” value is reported as “decrease in the amount of Alizarin Red-staining”. Also, in the test on MC3T3-E1 cells [5], the “mineralization (Alizarin Red S staining), concentration dependence” value was “concentration-dependent decrease in mineralization”. Besides, the “cell viability (MTT)” value in the test with MC3T3-E1 cells [1] (MC3T3-E1, 60 hr, individual ligand) is given as “decreased cell viability”. The “potency in raising PI-stained bodies, compared with the RAR-agonist” value in the test with MC3T3-E1 cells [2] (MC3T3-E1, over the concentration range examined) is on record as “greater potency than the RAR-agonist”. In addition, the “number of PI-stained cells (cell death)” value with MC3T3-E1 cells [2] was “greater number of PI-stained bodies”.

With `Cc1ccc(C2=CC(C)(C)Oc3c(Br)cc(C(=O)Nc4ccc(C(=O)O)c(F)c4)cc32)cc1` [AGN194301, 2-Fluoro-4-[(1-(8-bromo-2,2-dimethyl-4-(4-methylphenyl)-2-H-chromen-6-yl)-methanoyl)-amino]-benzoic acid], the “bone formation relative to control cultures” value in the test on MC3T3-E1 cells [5] (100 nM AGN194301 added to cultures treated with 10 nM 1,25 VD3) is listed as approximately 70%. Besides, the “increase of Alizarin Red S staining over untreated controls” value in the test on MC3T3-E1 cells [5] (MC3T3-E1, 28 days, 10 nM) is “approximately 3 fold”. The “culture surface area stained with Alizarin Red S” value in the test on MC3T3-E1 cells [5] (MC3T3-E1, 28 days, 1 μM, control cultures approximately 18%) was “approximately 95%”. In addition, the “mineralization (Alizarin Red S staining), concentration dependence” value in the test on MC3T3-E1 cells [5] is “concentration-dependent increase in Alizarin Red S staining”. The “affinity for RARβ” value on RARβ is “lower affinity”. At RARα, the “affinity for RARα” value is recorded as “high affinity” and the “antagonism of RARα” value is listed as “potent antagonist”. The “number of PI-positive cells relative to 1,25 VD3 treated culture” value in the test with MC3T3-E1 cells [2] (AGN194301 added to 1,25 VD3-treated cultures, 36 hr) is listed as “less than 20%”. The “appearance of PI-positive cells” value in the test on MC3T3-E1 cells [2] (MC3T3-E1, AGN194301 alone) is given as “no appreciable effect”. Besides, the “mineral deposition (Von Kossa, calcium phosphate)” value in the test on normal human osteoblasts [3] (19 days of ligand treatment) is “stimulates mineral deposition”. For the same compound, the OC expression entry in test [6] is on record as “stimulated OC expression”. Moreover, in [6] (wild-type cultures 18 days), the “culture time after which strong OC mRNA expression became evident” value is 12 days. In addition, the “affinity for RARγ” value on RARγ is listed as “lower affinity”.

Regarding `CC1=C(/C=C/C(C)=C\C=C\C(C)=C\C(=O)O)C(C)(C)CCC1` [9-cis RA, 9-cis retinoic acid], the cell viability result with MC3T3-E1 cells [1] is on record as “concentration-dependent decrease in cell viability”. Also, the “number of PI-stained cells (cell death)” value with MC3T3-E1 cells [2] is given as “stimulate cell death”.

Values taken from US20030125252A1, “Compositions and methods for affecting osteogenesis” (priority 2002, published 2003).
